Experimental findings from patent US9127016B2, “Small molecule inhibitors of Dusp6 and uses therefor” (University of Pittsburgh—Of the Commonwealth System of …, priority 2009, dated 2015) are described below.

For one assay, the system named is FGF target genes. Nature of the assay: Whole mount in situ hybridization of FGF target genes in treated embryos. The assay is classed as in vivo, zebrafish. The method, then:
(§1) In situ hybridization experiments were carried out as described previously (Kudoh, T. et al. Genome Res 11, 1979-87 (2001)). The probes eng3, krox20, sef, dusp6, gata4, nkx2.5, cmlc2, vmhc, scl, etsrp and hand2 were generated with a RNA labeling kit (Roche) (Tsang, M. et al. Development 131, 2769-79 (2004); Chen, J. N. et al. Development 122, 3809-16 (1996); Ekker, M., et al. Development 116, 1001-10 (1992); Liao, E. C. et al. Genes Dev 12, 621-6 (1998); Oxtoby, E. et al. Nucleic Acids Res 21, 1087-95 (1993); Pham, V. N. et al. Dev Biol 303, 772-83 (2007); Tsang, M., et al. Nat Cell Biol 4, 165-9 (2002); Yelon, D., et al. Dev Biol 214, 23-37 (1999); and Yelon, D. et al. Development 127, 2573-82 (2000)). The double fluorescent in situ hybridization protocol was described by Schoenbeck et al. (Dev Cell 13, 254-67 (2007)). Fluorescent in situ hybridizations were visualized by confocal microscopy. Single optical sections and z-series of flat-mounted stained embryos were collected with a confocal laser scan head (SP5, Leica Microsystems, Inc.) mounted on an inverted compound microscope (DM16000, Leica Microsystems, Inc.). Images were scanned and compiled with NIH ImageJ software (rsb.info.nih.gov/ij/).
We previously described the generation of a transgenic zebrafish line, (Tg(Dusp6:d2EGFP)pt6) that expresses destabilized green fluorescent protein (d2EGFP) under the control of FGF signaling (Molina, G. A., et al. BMC Dev Biol 7, 62 (2007)). […] Five transgenic embryos at 24 hours post fertilization (hpf) were arrayed into each well of a 96-well plate containing test compounds at 10 μM. d2EGFP intensity in treated embryos was visually analyzed and compared to vehicle control (0.5% DMSO) after 6-8 hours. […] To confirm that BCI hyperactivated FGF signaling, we treated embryos prior to gastrulation (5 hpf), and we analyzed by whole mount in situ hybridization, the expression of ntl (zebrafish brachyury), a known FGF target gene (Latinkic, B. V. et al. Genes Dev 11, 3265-76 (1997)). […] We next determined the BCI structural features required to enhance FGF signaling. […]

The test system of assay [1] is cardiac progenitors / heart size. Nature of the assay: Cardiac progenitor and heart size analysis in treated embryos. Format: in vivo, zebrafish. The method, then: as §1
The identification of a small molecule that blocks the biologically relevant activity of Dusp6 and Dusp1 allowed us to probe the requirement for these enzymes in later developmental processes. Given that BCI could potentially block related members of the Dusp family, we examined the expression of other dusps in zebrafish. Detailed expression analyses of several dusps have been described and include dusp4, dusp1, dusp7, dusp5, and dusp22a (Qian, F. et al. Dev Dyn 233, 1163-72 (2005); Sumanas, S., et al. Blood 106, 534-41 (2005); Brown, J. L. et al. Proc Natl Acad Sci USA 105, 12337-42 (2008); Kudoh, T. et al. Genome Res 11, 1979-87 (2001); and Thisse, B. et al. Fast Release Clones: A High Throughput Expression Analysis. ZFIN Direct Data Submission (zfin.org) (2004)). Of these only Dusp6 functions as a feedback regulator of FGF/MAPK/ERK signaling and is expressed within the anterior lateral plate mesoderm, supporting the idea that this phosphatase plays a role in heart development. In early embryogenesis, Dusp6 is an important regulator of FGF signaling; knock-down with antisense morpholinos results in embryo polarity defects, which precludes the study of Dusp6′s role in later development (Tsang, M. et al. Development 131, 2769-79 (2004)). In contrast, small molecules permit the analysis at later stages of development due to rapid and transient perturbation of their biological targets. Using BCI as a chemical probe, we asked how inhibiting Dusp6 activity would alter patterning and formation of the heart. The zebrafish heart develops from a small group of cardiac progenitor cells that can be identified by 5 hpf within the mesodermal layer of the blastula stage embryo. During gastrulation, cardiac progenitor cells undergo cellular migration to form two bilateral populations known as the anterior lateral plate mesoderm (ALPM) located just behind the MHB, and begin to express the transcription factors nkx2.5 and gata4. Studies have described a role for Fgf8 in zebrafish heart development. In embryos harboring an fgf8 mutation, both atria and ventricular cells are reduced (Marques, S. R., et al. Dev Biol 321, 397-406 (2008) and Reifers, F., et al. Development 127, 225-35 (2000)). In agreement with the notion that FGF signaling plays a role in stipulating heart size, ectopic expression of a constitutively activated FGF receptor (Fgfrl) during somitogenesis stages expanded cardiac tissue (Marques, S. R., et al. Dev Biol 321, 397-406 (2008)). Therefore we used BCI to test if Dusp6 limits FGF signaling and restricts cardiac progenitors and heart organ size. In BCI-treated embryos a caudal expansion of gata4 in the ALPM was observed (compare FIG. 14a & a′ to 14b & b′; 81%, n=16). […]

Structures are written as SMILES.

Consider `O=C1/C(=C/c2ccccc2)C(NC2CCCCC2)c2ccccc21` (stereo not drawn) [Compound 3, (E)-2-benzylidene-3-(cyclohexylamino)-2,3-dihydro-1H-inden-1-one], for which the expression of ntl entry in the assay with FGF target genes (treated prior to gastrulation (5 hpf), 6-somite stage) is “greatly expanded”. Also, the “expression of engrailed3 (eng3) and krox20” value with FGF target genes (treatment during somitogenesis) is “increased expression”. For the same molecule, the “expression of dusp6” value in the assay on FGF target genes (treatment from the 1- to 10-somite stage) was “marked increase”. Further, the “embryos with expansion of cardiac hand2 expression” value in assay [1] (10-somite stage, n=19) came out at 32%. For the same molecule, the “embryos with increase in cmlc2 positive cells” value in assay [1] (18-somite stage, n=16) is on record as 81%. Besides, the “embryos with expanded nkx2.5 cardiac progenitor pools” value in assay [1] (n=11) was 91%. In assay [1] (n=16, 10-somite stage), the “embryos with caudal expansion of gata4 in the ALPM” value is 81%. In assay [1] (treated at 40% epiboly, washout next day, 56 hpf), the “cardiac tissue in larvae” value is “marked expansion in cardiac tissue”. Also, in assay [1] (treated from the 1-somite stage, n=15), the “embryos with marked reduction in scl expression” value is 93%.
